Source: US4061542A, “2-Methyl-L-arginine produced by cultivating streptomyces strain” (Hoffmann-La Roche Inc., priority 1976, dated 1977)
Where two headings read alike, the source gives them in different places.

Assays:
ornithine decarboxylase [1] = conditions: in words; comparison substance; cited from earlier work
spermidine production [2] = conditions: in words; comparison substance; cited from earlier work
males [3] = conditions: administered to males; comparison substance; cited from earlier work
ornithine decarboxylase [4] = assay: Inhibition of ornithine decarboxylase; type: biochemical; conditions: in words; no test data given
males [5] = assay: Anti-fertility activity when administered to males; type: in vivo; conditions: in words, no test data given
spermidine production [6] = assay: Suppression of spermidine production; conditions: in words; no test data given
Escherichia coli B = assay: Paper-disc agar-diffusion assay (Scannell et al.), Escherichia coli B as test organism, minimal agar medium; type: cell-based
Text: (§1) The anti-microbial properties of the compound of the formula I and its salts are shown by the paper-disc agar-diffusion assay as described by Scannell et al. J. Antibiotics 25: 179-184 (1972). In this assay, Escherichia coli B as test organism, the minimal agar medium described by Scanell et al. was employed for the initial detection and during isolation of the antimetabolite. Similar to N^5 -hydroxy-L-arginine, the diameter of the inhibition zone was proportional to the logarithm of concentration of the compound of formula I within the range of 2 to about 100 λg/ml. A two-fold increase of the concentration of the compound of formula I increased the inhibition zone diameter by 3 mm and a […] solution gave a zone of about 36 mm.
(§2) (ATCC 27860) as againt E. coli.

mice = assay: Acute toxicity (LD50) in mice; type: in vivo; conditions: in words
[7] = tested on: Bacillus sp. (ATCC 27860); assay: Antibiotic activity against Bacillus sp. (ATCC 27860); type: cell-based
Text: as §1, §2

[8] = Acute toxicity (LD50) in mice; type: in vivo; conditions: mouse, in vivo, mice

CC(N)(CCCN)C(=O)O (racemic) [D,L-2-methyl ornithine]
inhibition of ornithine decarboxylase (ornithine decarboxylase [1]): inhibitor of ornithine decarboxylase
suppression of spermidine production (spermidine production [2]): suppresses spermidine production
anti-fertility activity (males [3]): anti-fertility agent

C[C@](N)(CCCN)C(=O)O [L-2-methyl ornithine, 2-methyl-L-ornithine]
inhibition of ornithine decarboxylase (ornithine decarboxylase [4]): inhibitor of ornithine decarboxylase
anti-fertility activity (males [5]): anti-fertility agent
suppression of spermidine production (spermidine production [6]): suppresses spermidine production

C[C@](N)(CCCNC(=N)N)C(=O)O [compound of formula I, 2-methyl-L-arginine]
reversal of antibiotic activity against Escherichia coli (Escherichia coli B; by added amino acids): reversed by L-arginine, L-citrulline, L-ornithine and N^2 -acetyl-L-ornithine
activity against Escherichia coli B (Escherichia coli B; in words): active
increase of inhibition zone diameter on two-fold increase of concentration (Escherichia coli B; two-fold increase of the concentration, Escherichia coli B): 3 mm
toxicity to vertebrates (mice): relatively non-toxic
activity against Bacillus s.p. ([7]; in words): active
level of activity against Bacillus sp. (ATCC 27860) compared with E. coli ([7]; relative to E. coli): approximately the same level of activity

C[C@](N)(CCCNC(=N)N)C(=O)O
LD50 ([8]; ip): > 1000 mg/kg
LD50 ([8]; po): > 1000 mg/kg
